Source: patent US20170209444A1, “METHODS OF TREATING CANCER AND PREVENTING CANCER DRUG RESISTANCE” (Genentech, Inc., priority 2014, published 2017)
“Also recorded” adds a separate entry of the source.

Key:
M14 DTPs = test: M14 DTP formation, GDC0973; assay type: cell-based, human; conditions: DTPs upon treatment with GDC0973; FIG. 10B
Experimental: (§1) 2×10^5 cells were plated in each well of a 6-well cluster dish. 24 hours after plating, media was removed and replaced with media containing drugs. Fresh media was replaced every 2 days until untreated cells reached confluence. Media was then removed, cells were washed with Phosphate Buffered Saline (PBS), and then fixed for 15 min with 4% formaldehyde in PBS. Cells were then washed with PBS and stained with the fluorescent nucleic acid stain, Syto60 ([…] in PBS; Molecular Probes) for 15 min. Dye was removed, cell monolayers were washed with PBS, and fluorescence quantitation was carried out at 700 nm with an Odyssey Infrared Imager (Li-Cor Biosciences). In some setting, RFP nuc red cells were used rather than Syto60.
(§2) Drug-sensitive cells were treated with relevant drug as described herein at concentrations exceeding 100 times the established IC50 values, for three rounds, with each treatment lasting 72 hours. […]
(§3) Specifically for Tarceva, GDC-0980, GDC-0973, AZ628, and Lapatinib DTPs, cells were plated and grown to 60-70% confluency then treated with Tarceva (0.1, 0.2, 0.5, and/or 1 uM), GDC-0980 (2 uM), GDC-0973 (1 uM), AZ628 (2 uM) and Lapatinib (1 uM). DTPs were collected and analyzed 1 week after the final dose of chemotherapy. […]

methylation of H3K9 = test: H3K9 methylation by Western blotting and mass spectrometry (FIG. 3A); assay type: cell-based
Experimental: (§4) Generally, for G9a inhibitor experiments cells were treated with active compound at 0.1, 0.2, 0.5 and/or 1 uM of the G9a inhibitor, UNC0638, for 3-5 days prior to chemotherapy treatment and were maintained on drug for the duration of the study.
(§5) Cell lysates were prepared in Laemmli sample buffer and analyzed by immunoblotting as described previously. Cell lystates were analyzed using commercial antibodies against modifications on H3 (Abcam, Active Motif, and Cell Signaling Technologies).
Samples with 10 million cells were lysed and histones were isolated from cell lysates using the Active Motif Histone Purification Kit (world wide web activemotif.com/catalog/171.html). Protein quantitation post-isolation was performed using the Qubit fluorescence platform (Invitrogen). The target yield was at least 20 μg or greater of purified histone per 5 million cells. The samples were then derivatized and binary comparisons using d0/d10 propionic anhydride and trypsin digestion was conducted. […]
Peptide digests were analyzed by nano LC/MS/MS in data-dependent mode on a LTQ Orbitrap Velos tandem mass spectrometer. […] Trypsin-digested propionylated samples were quantitated within each LC/MS run by comparing d0/d5 pairs (according to the work of Garcia et al., JPR, 8, 5367-5374 (2009)). Alternate enzyme samples were quantitated label-free between LC/MS runs.

H3K9me2 levels = conditions: Vedadi et al. 2011; Sweis et al. 2014; cited from earlier work
H3K9 methylation [1] = test: H3K9 methylation in SKBR3 cells (FIG. 9A); assay type: cell-based; conditions: human breast adenocarcinoma cell line SKBR3
Experimental: as §4, §5

G9aK185me3 = test: G9a auto-methylation (FIG. 3B); assay type: cell-based
Experimental: Cell lysates were prepared in Laemmli sample buffer and analyzed by immunoblotting as described previously.

H3K9 methylation [2] = test: H3K9 methylation Western blot in PC9 cells (FIG. 6A); assay type: cell-based, human
Experimental: as §4, §5

Colo205 DTPs = test: Colo205 DTP formation, AZ628; assay type: cell-based, human; conditions: DTPs upon treatment with AZ628; FIG. 11B
Experimental: as §1, §2, §3

Colo205 parental cells = test: Viability of Colo205 parental cells; assay type: cell-based, human; conditions: shown concentrations; FIG. 11B
Experimental: as §1, §4

M14 parental cells = test: Viability of M14 parental cells; assay type: cell-based, human; conditions: shown concentrations; FIG. 10B
Experimental: as §1, §4

SKBR3 DTPs = test: SKBR3 DTP formation, Lapatinib; assay type: cell-based, human; conditions: DTPs upon treatment with Lapatinib; FIG. 9B
Experimental: as §1, §2, §3

H3K9 methylation [3] = test: H3K9 methylation in EVSA-T cells (FIG. 8A); assay type: cell-based; conditions: human breast cancer cell line EVSA-T
Experimental: as §4, §5

parental PC9 cells = test: Viability of parental PC9 cells; assay type: cell-based, human; conditions: shown concentrations; FIG. 6B
Experimental: as §1, §4

EVSA-T DTPs = test: EVSA-T DTP formation, GDC-0980; assay type: cell-based, human; conditions: DTPs upon treatment with GDC-0980; FIG. 8B
Experimental: as §1, §2, §3

SKBR3 parental cells = test: Viability of SKBR3 parental cells; assay type: cell-based, human; conditions: shown concentrations; FIG. 9B
Experimental: as §1, §4

H3K9 methylation [4] = test: H3K9 methylation in M14 cells (FIG. 10A); assay type: cell-based; conditions: human melanoma cell line M14
Experimental: as §4, §5

PC9 DTPs = test: PC9 drug tolerant persister (DTP) formation/viability, Tarceva; assay type: cell-based, human
Experimental: as §1, §2, §3

EVSA-T parental cells = test: Viability of EVSA-T parental cells; assay type: cell-based, human; conditions: shown concentrations; FIG. 8B
Experimental: as §1, §4

H3K9 methylation [5] = test: H3K9 methylation in Colo205 cells (FIG. 11A); assay type: cell-based; conditions: human colon cancer cell line Colo205
Experimental: as §4, §5

In the case of COc1cc2c(NC3CCN(C(C)C)CC3)nc(C3CCCCC3)nc2cc1OCCCN1CCCC1 [UNC0638], the “number of M14 DTPs formed after pre-treatment” value (M14 DTPs) is listed as “dose dependent reduction in the number of M14 DTPs formed”, the “inhibition of methylation of H3K9” value (methylation of H3K9) is listed as “capable of inhibiting methylation of H3K9” and the H3K9me2 levels (H3K9me2 levels) is listed as “reduces H3K9me2 levels in a concentration dependent manner”. For the same molecule, the “H3K9 methylation (me1, me2, me3)” value (H3K9 methylation [1]) was “reduces H3K9 methylation (e.g., me1, me2, and me3) in a dose dependent manner”, the “inhibition of auto-methylation G9aK185me3” value (G9aK185me3) was “inhibits auto-methylation G9aK185me3” and the “H3K9 methylation (me1, me2, me3)” value (H3K9 methylation [2]) was “reduced methylation of H3K9; also recorded: reduces H3K9 methylation (e.g., me1, me2, and me3) in a dose dependent manner”. The “number of Colo205 DTPs formed after pre-treatment” value (Colo205 DTPs) was “dose dependent reduction in the number of Colo205 DTPs formed”, the “viability of the Colo205 parental cells” value (Colo205 parental cells) was “do not affect the viability of the Colo205 parental cells” and the “viability of the M14 parental cells” value (M14 parental cells) was “do not affect the viability of the M14 parental cells”. For the same molecule, the “number of SKBR3 DTPs formed after pre-treatment” value (SKBR3 DTPs) was “dose dependent reduction in the number of SKBR3 DTPs formed”, the “H3K9 methylation (me1, me2, me3)” value (H3K9 methylation [3]) was “reduces H3K9 methylation (e.g., me1, me2, and me3) in a dose dependent manner” and the “viability of the parental PC9 cells” value (parental PC9 cells) was “do not affect the viability of the parental PC9 cells”. The “number of EVSA-T DTPs formed after pre-treatment” value (EVSA-T DTPs) was “dose dependent reduction in the number of EVSA-T DTPs formed”, the “viability of the SKBR3 parental cells” value (SKBR3 parental cells) was “do not affect the viability of the SKBR3 parental cells” and the “H3K9 methylation (me1, me2, me3)” value (H3K9 methylation [4]) was “reduces H3K9 methylation (e.g., me1, me2, and me3) in a dose dependent manner”. The “viability/number of PC9 DTPs generated via treatment with Tarceva” value (PC9 DTPs; Tarceva, FIGS. 5 and 7) was “reduces the number of the non-small cell lung cancer cell line, PC9, DTPs; also recorded: reduced the viability of PC9 DTPs”, the “number of DTPs formed after pre-treatment” value (PC9 DTPs; varying doses of UNC0638 pre-treatment, FIG. 6B) was “reducing the number of PC9 DTPs; also recorded: dose dependent reduction in the number of DTPs formed” and the “viability of the EVSA-T parental cells” value (EVSA-T parental cells) was “do not affect the viability of the EVSA-T parental cells”. The “H3K9 methylation (me1, me2, me3)” value (H3K9 methylation [5]) was “reduces H3K9 methylation (e.g., me1, me2, and me3) in a dose dependent manner”.
